A short description of data set [1]: Metabolite radioprofiling of plasma, urine and feces, rat. In kind it is in vivo. To be noted: rat (5 mg/kg) oral 14C-talarozole; for Urine % Dose as the component: urine 0-48 h. The protocol:
(§1) Male and female CD-1 mice (19-29 g, n=3/sex/timepoint for blood sampling, n=3/sex for mass balance), Sprague Dawley rats (0.205-0.237 kg, n=3/sex/timepoint for blood sampling, n=3/sex for mass balance) and beagle dogs (7-12 kg, n=3) were given a single oral dose of ^14C-labeled talarozole in 20% hydroxyl propyl B-cyclodextrin at 5 mg/kg. Healthy human male volunteers (76.6-107.9 kg, n=5) were dosed with a single oral dose of 4 mg ^14C-labeled rambazole in ethanol. Blood samples were collected at selected timepoints after dosing and plasma was prepared. Urine and feces were collected for 2, 7 and 8 days. For the human study, up to 288 hours post-dose and semen samples were obtained 2 and 4 hours post-dose. Radioactivity in various matrices were measured by liquid scintillation counting (LSC). Select plasma, urine and fecal samples were subjected to metabolite radioprofiling and characterization, and in the human study, semen samples. Metabolite radioprofiling was accomplished using HPLC with fraction collection followed by solid scintillation counting (Packard TopCount—see representative HPLC run data below). Radioactivity peaks were integrated and the percent distribution of individual metabolites in each sample was determined. Metabolite characterization and identification were accomplished by LC/MS (Finnigan MAT LCQ in positive or negative ESI mode) in conjunction with an appropriate radioactive monitor (RAM). For all species, plasma, urine and fecal samples were pooled across animals and analyzed. Plasma was analyzed at several time-points out to 24 hours. Urine was analyzed over one time-interval (0-24 hours for mouse, 0-48 hours for rat, 0-72 hours for dog, and for in the human study, 0-12, 12-24, 24-48, 0-48 hours. Feces was analyzed over 2-3 time intervals (0-24 and 24-48 hours for mouse and rat; 0-24, 24-48, and 48-72 hours for male dogs; and 24-48, 48-72, and 72-96 hours for female dogs). In the human study, feces were analyzed for 0-48, 48-96, 96-144, 144-192, 192-288, 0-144, 144-288 and 0-288 hours. PK parameters for ^14C-labeled talarozole radioactivity was determined from the mean (mouse and rat) or individual (dog and human) plasma concentration versus time data. PK parameter values were determined by non-compartmental methods using WinNonlin™. • HPLC data for separations described in Example 1: • LC system: Waters 2695 Separations Module • Analytic column: C18 column, 4.6×150 mm, 3 μm • Flow rate: 1.0 mL/min • Mobile phase A: 2% HCOOH in H2O (pH 3.2) • Mobile phase B: CH3CN • Gradient: […]

Data set [2] concerns vaginal keratinization induced by estrogenic treatment. Description: Inhibition of vaginal keratinization induced by estrogenic treatment in ovariectomized rats. In kind it is in vivo, rat. To be noted: for ED50-value for complete suppression (keratinization score=0): ovariectomized rats with estrogenic treatment, M4 oral during 3 days. An excerpt: Effects on Epithelial Differentiation in Rat Vagina: Inhibition of Vaginal Keratinization Induced by Estrogenic Treatment in Ovariectomized Rats by Oral Administration of Talarozole Metabolite M4
This animal model is based on the observation that retinoic acid (RA) suppresses the keratinization process in the stratified squamous epithelium of the vagina induced by estrogenic treatment in ovariectomized rats (Sietsema & DeLuca, 1982; Geiger & Weiser, 1989).

A short description of data set [3]: Metabolite radioprofiling of plasma, urine and feces, mouse. In kind it is in vivo. The conditions noted are these: mouse (5 mg/kg) oral 14C-talarozole; for Urine % Dose as the component: urine 0-24 h. How it is done:
as §1

The nature of data set [4]: Metabolite radioprofiling of plasma, urine, feces and semen, human. The conditions noted are these: in vivo. The protocol:
as §1

Another data set concerns IP-10. Description: Suppression of IP-10 production by IFNγ-activated human epidermal keratinocytes. In kind it is cell-based. An excerpt: Talarozole Metabolites for Suppression of IP-10 Production by IFNγ-Activated Human Epidermal Keratinocytes
IP-10, a member of the CXC subfamily of chemokines, attracts T-lymphocytes and natural killer cells. […] In particular, epidermal keratinocytes of psoriatic lesions express elevated levels of IP-10. Suppression of IP-10 expression by activated keratinocytes may represent a novel target for therapeutic intervention of inflammatory skin disorders.

A short description of data set [5]: Metabolite radioprofiling of plasma, urine and feces, dog. In kind it is in vivo. The conditions noted are these: dog (5 mg/kg) oral 14C-talarozole; for Urine % Dose as the component: urine 0-72 h. How it is done:
as §1

As for `CCC(CC)C(c1ccc(Nc2nc3ccc(OS(=O)(=O)O)cc3s2)cc1)n1cncn1` (stereo not shown) [Metabolite M16], in data set [1] (female), the “Feces % Dose as the component” value stood at 1.33 % Dose, the “Plasma 0-24 h AUC (% Sample)” value was 2.43%, the “Plasma 0-24 h AUC of the radioactive component” value is 218.47 ng·h/g and the “Urine % Dose as the component” value came to 0.31 % Dose. Besides, in data set [1] (male), the “Feces % Dose as the component” value is 1.42 % Dose, the “Plasma 0-24 h AUC (% Sample)” value is 2.94%, the “Plasma 0-24 h AUC of the radioactive component” value stood at 207.48 ng·h/g and the “Urine % Dose as the component” value is given as 0.16 % Dose.
On to `CC1=C(/C=C/C(C)=C/C=C/C(C)=C/C(=O)O)C(C)(C)CCC1` [RA, retinoic acid], for which the “ED50-value for complete suppression (keratinization score=0)” value in data set [2] is on record as 5.1 mg/kg/day.
Turning to `CCC(CC)C(c1ccc(Nc2nc3ccc(O)cc3s2)cc1)n1cncn1` (stereo not shown) [Metabolite M4], the “Feces % Dose as the component” value in data set [3] (female) was determined as 15.16 % Dose; in data set [3] (male) it was 10.56 % Dose; in data set [1] (female) it was 7.76 % Dose; in data set [1] (male), 4.95 % Dose; in data set [5] (female), 17.01 % Dose; in data set [5] (male), 19.88 % Dose. Besides, the “Plasma 0-24 h AUC (% Sample)” value in data set [3] (female) worked out at 7.44%; in data set [3] (male), 4.43%; in data set [1] (female), 3.68%; in data set [1] (male), 7.01%; in data set [5] (female), 34.33%; in data set [5] (male), 18.37%. In addition, the “Plasma 0-24 h AUC of the radioactive component” value in data set [3] (female) was determined as 492.2 ng·h/g; in data set [3] (male) it was 402.45 ng·h/g; in data set [4] (human, po, 0.067 mg/kg) it was 58.74 ng·h/g; in data set [1] (female), 331.07 ng·h/g; in data set [1] (male), 493.84 ng·h/g; in data set [5] (female) it was 6257.6 ng·h/g. In data set [5] (male), the “Plasma 0-24 h AUC of the radioactive component” value is 3132.4 ng·h/g. For the same molecule, the “Urine % Dose as the component” value in data set [3] (female) is 0.01 % Dose; in data set [3] (male) it was 0.02 % Dose; in data set [1] (female), 0.29 % Dose; in data set [1] (male), 0.07 % Dose; in data set [5] (female) it was 0.01 % Dose; in data set [5] (male), 0.04 % Dose. Further, the “Semen (radioactive component in semen samples)” value in data set [4] is “minor radioactive components”. Also, the “Plasma 0-24 h AUC (% Sample), % of total plasma radioactivity” value in data set [4] (male, human, po, 0.067 mg/kg) is 27.8%. Further, the “IP-10 expression” value in the data set with IP-10 is recorded as “down regulate dose-dependently”. Moreover, the “inhibition of vaginal keratinization” value in data set [2] (oral administration during 3 days, ovariectomized rats) was “inhibited vaginal keratinization induced by estrogenic treatment in ovariectomized rats in a dose-dependent manner”. The “ED50-value for complete suppression (keratinization score=0)” value in data set [2] is on record as 1.2 mg/kg/day.
Regarding `CCC(CC)C(c1ccc(Nc2nc3ccc(OC4OC(C(=O)O)C(O)C(O)C4O)cc3s2)cc1)n1cncn1` (stereo not shown) [Metabolite M9], the “Plasma 0-24 h AUC (% Sample)” value came out at 18.27% in data set [3] (female), 21.31% in data set [3] (male), 12.06% in data set [1] (female) and 4.43% in data set [1] (male). For the same molecule, the “Plasma 0-24 h AUC of the radioactive component” value in data set [3] (female) came out at 1208.2 ng·h/g; in data set [3] (male), 1937.3 ng·h/g; in data set [1] (female), 1084.8 ng·h/g; in data set [1] (male) it was 312.30 ng·h/g. The results for the “Feces % Dose as the component” value in data set [5] (female) and in data set [5] (male) were 3.09 % Dose and 4.31 % Dose, respectively. For the same molecule, the “Urine % Dose as the component” value in data set [5] (female) came to 0.45 % Dose; in data set [5] (male) it was 1.35 % Dose.
With `CCC(CC)[C@@H](c1ccc(Nc2nc3ccccc3s2)cc1)n1cncn1` [its enanantiomer], the “IP-10 expression” value in the data set on IP-10 is “down regulate dose-dependently”.
